# Test results taken from US20260248826A1, “DRUG COMBINATION FOR TREATMENT OF PANCREATIC CANCER” (priority 2023, published 2026).
# Assays:
# S2-VP10 tumor cells = assay: Orthotopic S2-VP10 pancreatic tumor model in athymic nude mice; assay type: in vivo
# Procedure: A preclinical study of minnelide was conducted in mice. Female athymic nude mice (NCI nu/nu; 4 to 6 weeks old) were anesthetized with xylazine/ketamine, and S2-VP10 tumor cells embedded in Matrigel were implanted into the pancreatic tail (3×10^5 cells/mouse). Twelve days after tumor implantation (Day 0), animals were randomized to receive saline, nab-paclitaxel plus gemcitabine (Gem/Abx; 250/25 mg/kg), or minnelide plus nab-paclitaxel plus gemcitabine (Minn/Gem/Abx; 0.15/250/25 mg/kg or 0.21/250/25 mg/kg) (10 animals/group). Minnelide was administered once daily (QD) by oral gavage (PO). Treatment continued until Day 28 when animals were sacrificed.
# [1] = Phase 1 study of minnelide given intravenously in patients with Advanced GI Tumors; assay type: in vivo, human; settings: IV
# From the text: Intravenous Minnelide. Phase 1, Multi-Center, Open-Label, Dose-Escalation, Safety, Pharmacokinetic, and Pharmacodynamic Study of minnelide given intravenously daily for 21 days followed by 7 days off schedule in patients with Advanced GI Tumors. A second dosing schedule of minnelide given intravenously QD for 5 days with 2 days off for three weeks followed by a 7-day rest period was also explored during this study. A total of 45 patients enrolled in the Phase 1 study, however 3 patients were not dosed with study drug. The remaining 42 patients were dosed in the study. The primary reason for the discontinuation of treatment was disease progression. There were 6 deaths in the study, but these occurred after the study drug had ended and were within the 30-day follow-up period. […] One patient who died from respiratory failure, and this was also found to be not related to use of the study drug.
# [2] = Phase 1 study of Minnelide Capsules alone or in combination with protein-bound paclitaxel in patients with Advanced Solid Tumors; assay type: in vivo, human
# From the text: Oral Minnelide. A Phase 1, Multi-Center, Open-Label, Dose-Escalation, Safety, Pharmacokinetic, and Pharmacodynamic Study of Minnelide™ Capsules given alone or in combination with protein-bound paclitaxel in patients with Advanced Solid Tumors.
# A total of 51 patients have been enrolled and dosed in the Phase 1 study, of whom […] were evaluable for safety (34 in the monotherapy regimen and 16 in the combination regimen). Twenty-nine patients have completed treatment in the monotherapy regimen, and 6 dose escalations have occurred. In the monotherapy regimen, one DLT has been observed, which occurred in the 1.25 mg cohort. […] As a result of this DLT, and out of an abundance of caution, 3 additional patients were enrolled in the 1.0 mg cohort.
# A total of 17 patients had been enrolled in combination therapy regimen. Two DLTs have been observed: one at the 0.25 mg minnelide and 125 mg/m^2 protein-bound paclitaxel dose level and one at the 0.25 mg minnelide and 100 mg/m^2 protein-bound paclitaxel dose level. […] A total of 2 SAEs occurred in this patient, neither of which were deemed related to the IP. As this was the first patient in the combination regimen to receive protein-bound paclitaxel with minnelide, the combination regimen was put on enrolment hold until further escalation parameters were introduced. The second DLT occurred in the first patient of the 0.25 mg minnelide and 100 mg/m^2 protein-bound paclitaxel cohort: a Grade 5 event of sepsis.
# [3] = test system: pancreatic and ovarian tumor cells; assay: In vitro antitumor activity (activated with alkaline phosphatase to release triptolide); assay type: cell-based
# [4] = test system: pancreatic and ovarian cancer; assay: Daily administration in models of pancreatic and ovarian cancer; assay type: in vivo; settings: administered daily
# [5] = Blood counts of patients during minnelide dosing and withholding; assay type: in vivo, human
# From the text: A drop in blood counts is usually seen within the first 5-7 days of the start of minnelide and resolves in 4-8 days of withholding of minnelide.
# CBC with differential was done on days 1, 8, 15, 22 and more frequently as clinically indicated. Patient were hospitalized for close monitoring when the ANC level was <1000 mm^3 (grade 3 or higher) or platelet was <100,000 cells/mm^3 at any time. Minnelide™ Capsules would not resume until the ANC level was ≥1500 mm^3 or platelet was ≥100,000 cells/mm^3.
# [6] = test system: extracellular matrix (ECM) of the pancreatic tumors; settings: by downregulating hyaluronan synthesis and preventing collagen cross linking; cited from earlier work
# [7] = test system: transforming growth factor-β (TGFβ) signaling in cancer associated fibroblasts (CAFs); settings: dose of 0.2 mg/kg; cited from earlier work
# [8] = test system: MIA-PaCa2 and PANC-1 pancreatic cancer cell lines; settings: after incubation with triptolide; cited from earlier work
# [9] = test system: S2-013, S2-VP10 and Hs766T; settings: metastatic lines; cited from earlier work
# [10] = test system: pancreatic tumor cells and CAFs; settings: cited from earlier work
# [11] = Day 28, minnelide 0.15 mg/kg QD PO added to Gem/Abx 250/25 mg/kg, compared with Gem/Abx alone
# [12] = Day 28, minnelide 0.21 mg/kg QD PO added to Gem/Abx 250/25 mg/kg, compared with Gem/Abx alone
# [13] = overall, daily oral minnelide concurrently with Gem/Abx, compared with minnelide or Gem/Abx alone
# [14] = oral, monotherapy and combination
structure (smiles),measurement,setting,value
"CC(C)[C@]12O[C@H]1[C@@H]1O[C@]13[C@]1(O[C@H]1C[C@H]1C4=C(CC[C@@]13C)C(=O)OC4)[C@@H]2OCOP(=O)([O-])[O-].[Na+].[Na+] [minnelide, disodium; [(1S,2S,4S,5S,7S,8R,9R,11S,13S)-1-methyl-17-oxo-7-propan-2-yl-3,6,10,16-tetraoxaheptacyclo[11.7.0.0^2,4.0^2,9.0^5.7.09^,11.0^14,18]icos-14 (18)-en-8-yl]oxymethyl phosphate]",tumor volumes,S2-VP10 tumor cells; [11],further reduced
same,tumor weights,S2-VP10 tumor cells; [11],further reduced
same,tumor volumes,S2-VP10 tumor cells; [12],further reduced
same,tumor weights,S2-VP10 tumor cells; [12],further reduced
same,tumor volumes,S2-VP10 tumor cells; [13],decreased
same,tumor weights,S2-VP10 tumor cells; [13],decreased
same,"Anemia and thrombocytopenia Grade 3 and 4, drug related, patients",[1],22%
same,Serious Adverse Events related to the study drug,[1],six
same,"Serious Adverse Events, total",[1],28
same,"TEAEs leading to discontinuation probably related to study drug, considered DLTs",[1],two
same,"neutropenia grade 3 and 4 of short duration, drug related",[1],observed at all dose levels
same,patients with Serious Adverse Events,[1],17
same,patients with at least 1 AE considered related to the study drug,[1],32
same,"patients with neutropenic fever and neutropenic infection, drug related",[1],three
same,deaths in the study,"[1]; 42 patients dosed, within 30-day follow-up, not related to study drug",6
same,patients who discontinued the study drug due to TEAEs,[1]; all Grade 3,3
same,incidence of most commonly reported TEAEs regardless of causality,"[1]; hypoalbuminemia, anemia, hypoproteinemia, fatigue, neutropenia, leukopenia, thrombocytopenia, nausea, hypocalcemia, diarrhea, hyperphosphatemia, constipation, vomiting, hyponatremia, lymphopenia, abdominal pain, dehydration, hyperglycemia, peripheral edema, hypophosphatemia, headache",> 20%
same,"other possibly related side effects of any grade, patients","[1]; nausea, vomiting, diarrhea, constipation, anorexia, stomatitis, cerebellar toxicity, embolism, dyspnea",≤ 3%
same,time to resolution of neutropenia,[1]; not receiving treatment,within a couple of days
same,DLTs in five additional patients,[2]; 0.25 mg minnelide and 100 mg/m^2 protein-bound paclitaxel cohort,no DLTs observed
same,DLTs observed,"[2]; 0.25 mg minnelide and 100 mg/m^2 protein-bound paclitaxel dose level, Grade 5 sepsis",one
same,DLTs observed,[2]; 0.25 mg minnelide and 125 mg/m^2 protein-bound paclitaxel dose level,one
same,DLTs observed,"[2]; combination regimen with protein-bound paclitaxel, 17 patients",Two
same,DLT observed,"[2]; oral monotherapy regimen, in the 1.25 mg cohort, Grade 5 sepsis",one
same,related SAEs by type,"[2]; oral, combination therapy with protein-bound paclitaxel",one event each of Grade 5 sepsis and Grade 2 esophagitis
same,SAEs related to the investigational product,[2]; [14],8
same,"SAEs, total",[2]; [14],45
same,patients with SAEs,[2]; [14],25
same,related SAEs by type,"[2]; oral, patients on monotherapy","1 event each of Grade 5 sepsis, Grade 4 sepsis, Grade 3 nausea, Grade 3 polymicrobial bacteraemia, Grade 3 intractable nausea, Grade 3 hypokalaemia, and Grade 2 enteritis"
same,AE incidence: Lower extremity oedema,[2]; regardless of causality,24%
same,AE incidence: abdominal distension,[2]; regardless of causality,12%
same,AE incidence: abdominal pain,[2]; regardless of causality,30%
same,AE incidence: anemia,[2]; regardless of causality,18%
same,AE incidence: back pain,[2]; regardless of causality,12%
same,AE incidence: chills,[2]; regardless of causality,12%
same,AE incidence: constipation,[2]; regardless of causality,24%
same,AE incidence: dehydration,[2]; regardless of causality,18%
same,AE incidence: dizziness,[2]; regardless of causality,12%
same,AE incidence: dyspnoea,[2]; regardless of causality,12%
same,AE incidence: fatigue,[2]; regardless of causality,18%
same,AE incidence: gastroesophageal reflux disease,[2]; regardless of causality,12%
same,AE incidence: leukopenia,[2]; regardless of causality,12%
same,AE incidence: local swelling,[2]; regardless of causality,18%
same,AE incidence: nausea,[2]; regardless of causality,24%
same,AE incidence: neutropenia,[2]; regardless of causality,30%
same,AE incidence: neutrophil count decreased,[2]; regardless of causality,13%
same,AE incidence: pain,[2]; regardless of causality,12%
same,AE incidence: pleural effusion,[2]; regardless of causality,12%
same,AE incidence: pyrexia,[2]; regardless of causality,24%
same,AE incidence: skin irritation,[2]; regardless of causality,12%
same,AE incidence: vomiting,[2]; regardless of causality,18%
same,antitumor activity in vitro,[3],potent antitumor activity
same,animal survival,[4],markedly improved
same,tumor volumes,[4],significantly reduced
same,tumor weights,[4],significantly reduced
same,time to drop in blood counts,[5]; from the start of minnelide,5 to 7 days
same,time to resolution of drop in blood counts,[5]; withholding of minnelide,4 to 8 days
same,extracellular matrix (ECM) of pancreatic tumors,[6],depleted
same,TGFβ signaling in CAFs,[7],disrupts
CC(C)[C@]12O[C@H]1[C@@H]1O[C@]13[C@]1(O[C@H]1C[C@H]1C4=C(CC[C@@]13C)C(=O)OC4)[C@@H]2O [triptolide],caspase-3 activity,[8],significantly increased
same,cytochrome c release from mitochondria into the cytosol,[8],significantly increased
same,autophagic cell death,[9],induces autophagic cell death
same,"SE-associated genes (BRD4, MYC, RNA Pol II, Collagen 1) expression","[10]; both cell types, mRNA and protein levels",downregulation
same,cytotoxicity,[10]; both pancreatic tumor cells and CAFs,cytotoxic
